Measurements: a melting point compilation (Tetko et al.; mined from patent text by program, amines drawn as free bases though some values may be those of a salt)

SMILES	melting point
COc1ccc2c(Cc3c(Cl)cncc3Cl)nncc2c1C=Cc1ccccc1	180 to 182 °C
CCCC1CC1(C(=O)Nc1ccc(Br)cc1C)C(=O)OC (stereo unspecified)	60 °C
CN(C(CCN1C(=O)c2ccccc2C1=O)C(=O)NO)S(=O)(=O)c1ccc(Oc2ccc(F)cc2)cc1 (stereo unspecified)	100 to 101 °C
CCCC1=C(C(=O)OCC)C(C(C)C)n2ncc(C(=O)OCC)c2N1Cc1ccc(-c2ccccc2-c2nnn[nH]2)cc1 (stereo unspecified)	183 to 184 °C
CCOC(=O)c1c2n(c3c(Cl)c(F)c(F)cc3c1=O)C(C)S2 (stereo unspecified)	191 to 194 °C
CC(C)(CCn1ccnc1)NCC(O)c1ccc(O)c(CO)c1 (stereo unspecified)	135 to 137 °C
CCCCOCCCn1c(CCCC)nc2cnc3cccnc3c21	56.5 to 57.5 °C
COc1cc(Cn2[nH]c(N)cc2=O)ccc1Cl	148 °C
CCN(C(=O)c1ccccc1)[C@@H](Cc1c[nH]c2ccccc12)C(=O)OC(=O)c1ccc(N)cc1	181 to 183 °C
CON(C)c1nc(C)cc(O)n1	128 to 129 °C
CCOc1ccccc1-c1cc(OC)c(C(=O)N2Cc3cccn3Cc3ccccc32)cc1Cl	213 to 215 °C
CCCCCCCCCCCCCCCCCCNC(=O)OCC(CN(C(C)=O)S(=O)(=O)CCCI)NC(C)=O (stereo unspecified)	118 to 119 °C
CC1(O)c2ccccc2C(C)(O)c2ccccc21 (stereo unspecified)	178 to 179 °C
COc1ccc(C(Sc2cc(Oc3cccc(C)c3)ccc2N)C(O)C(=O)O)cc1 (stereo unspecified)	163 to 165 °C
COc1cc(C)c(C=CC(C)=CCCC=O)c(C)c1C	42 to 45 °C
CCNS(=O)(=O)Cc1ccc(N)cc1	161 to 164 °C
O=C1CCC(=O)N1CCCCCNC(=O)n1cc(F)c(=O)[nH]c1=O	142 °C
NCCCc1ccc(OCCC2Oc3ccccc3N(Cc3ccc(Cl)cc3)C2=O)cc1 (stereo unspecified)	95 to 97 °C
OCc1cnoc1-c1ccc(-c2ccccc2)cc1	108 to 110 °C
Cc1cc(C)nc(NC(=O)NS(=O)(=O)c2ccccc2OCCO)n1	183 to 190 °C
CN1C(=O)C2C3CCC(CC3)C2(c2ccc(Cl)c(Cl)c2)C1=O (stereo unspecified)	126 to 134 °C
CCOC(=O)CN(C)C(=O)c1ccn2c1CNc1ccccc1C2	147 to 148 °C
O=C(O)C(=O)c1ccc(OCCCOc2ccccc2)cc1	50 to 52 °C

SMILES	melting point
O=c1[nH]c(=O)n(CCCCN2CCC(OC(c3ccccc3)c3ccccc3)CC2)c2cc(Cl)ccc12	169 to 171 °C
COC(=O)C#CC(=O)c1cc(OC)ccc1OC	70 to 71 °C
Clc1ccc2c(CCN3CCN(c4cccc5c4OCCO5)CC3)c[nH]c2c1	215 to 216 °C
CC(C)(Cl)C(CCn1ccnc1[N+](=O)[O-])N=O (stereo unspecified)	96 to 97 °C
CCOC(=O)CN1CCC(=C2c3ccc(Cl)cc3CCc3cccnc32)CC1	80 to 82 °C
Nc1cccc(SCc2ccccc2)n1	65 to 66 °C
N#Cc1ccc(N2CCC(c3ccccc3)CC2)cc1	167 to 169 °C
CCCSCCCCCCCCCC(=O)O	42 to 43.5 °C
C[C@H](NC(=O)c1c[nH]c2ncc(-c3cccs3)nc12)C(C)(C)C	311 to 312 °C
O=C1NCC(C(=O)O)S1 (stereo unspecified)	148 to 150 °C
O=Cc1oc(-c2ccccc2)nc1CO	134 to 135 °C
CC(=O)NNC(=N)C(Cl)(Cl)Cl	130 to 132 °C
CC1(C)Cc2cccc(Oc3ccc(N)cc3Cl)c2O1	102 to 104 °C
CC(C)(C)NC(=O)C(C)(C)N(OC(c1ccccc1)c1ccccc1)C(C)(C)C	89 to 92 °C
OCc1ccc2ccc3c4ccccc4ccc3c2c1	187 to 189 °C
CC1(C)CCC(C)(C)c2c(C=O)cc(-c3ccccc3)cc21	113 °C
CC(CCc1cccc(F)c1)NCc1c(CO)ccc(O)c1CO (stereo unspecified)	114 to 117 °C
Cc1cc(C)cc(NC(=O)NC2CC2)c1	169 °C
CS(=O)c1coc2cc(NS(C)(=O)=O)c(Oc3ccccc3)cc2c1=O (stereo unspecified)	> 250 °C
CCCc1ncc(CC(=O)O)s1	95 °C
Cc1nc2c(cc1C(=O)NC(=N)N)C(O)CCCC2 (stereo unspecified)	225 to 226 °C
COc1nc(-c2ccccc2)n(Cc2ccc(-c3ccccc3S(N)(=O)=O)cc2)c1C=O	188 °C
O=C(O)C(Oc1ccc(Cl)cc1)Oc1ccc(C2CCNc3ccccc32)cc1 (stereo unspecified)	152 to 155 °C

SMILES	melting point
CCOC(=O)CSc1nc(Cl)cc(Nc2cccc(C)c2C)n1	88 to 93 °C
S=c1sc(=Nc2ccc(Cl)cc2)n2n1CCCC2	96 to 97 °C
O=c1c2ccccc2nc(-c2cc(-c3ccc(Cl)cc3)c(N3CCOCC3)s2)n1-c1ccccc1	229 to 230 °C
COc1cc(C(C)C)c2c(c1)S(=O)(=O)N(COC(=O)c1c(C)noc1C)C2=O	137 to 139 °C
COC(=O)c1ccc(CCCCc2c(N)nc(N)nc2O)cc1	203 to 205 °C
O=C(Nc1ccc(OCC2CCCO2)c([N+](=O)[O-])c1)OCCCl (stereo unspecified)	84 to 86 °C
O=C(O)C1Nc2ccccc2-c2c([N+](=O)[O-])cnn21 (stereo unspecified)	203 to 205 °C
c1ccc(-c2onc3ccc(Oc4ccc5noc(-c6ccccc6)c5c4)cc23)cc1	158 to 165 °C
CCCCCCCCCCCCCCCCCCOc1ccc(O)c(C(=O)OC)c1	53 to 54 °C
Cc1cc(C)c(S(=O)(=O)N(C)O)c(C)c1	83 to 84 °C
Cn1ncc2c1CC(C)(C)C(C=O)C2=O (stereo unspecified)	131 to 132 °C
O=c1[nH][nH]c(=S)n(CCO)c1=O	230 °C
CC(=CC(=O)NCc1cccc(CNC(=O)C=C(C)C(=O)O)c1)C(=O)O	148 to 150 °C
Cc1ccc(O)c2c1CCC1C2CCC2(C)C(O)CCC12 (stereo unspecified)	226 to 229 °C
C/C(=C\c1ccc(C2(C)OCCO2)cc1)c1ccc2c(c1)C(C)(C)CCC2(C)C	122 to 123 °C
CCOC(=O)c1[nH]c(=O)n(C)c(=O)c1OCc1ccccc1	184 to 187 °C
COC(=O)C(CCCCN1C(=O)c2ccccc2C1=O)C(=O)OC	55 to 58 °C
CC(=O)c1c(CBr)c(CBr)c(C(C)=O)c2c1C(=O)c1ccccc1C2=O	225 to 227 °C
CCc1c(C(=O)O)ccc(OC)c1C	180 °C
Cc1cc([N+](=O)[O-])c(CC2NC(=O)NC2=O)cc1Cl (stereo unspecified)	211 to 214 °C
CCOC(=O)c1c2n(c3cc(Cl)c(F)cc3c1=O)C(COC1CCCCO1)CS2 (stereo unspecified)	183 to 186 °C
COC1Cn2ccc(=O)c(OCc3ccccc3)c2C(c2ccccc2)O1 (stereo unspecified)	202 to 204 °C
CS(=O)(=O)c1ccc(C(CC2CCCC2)C(=O)O)cc1C#N (stereo unspecified)	180 to 181 °C

Other lines, results leading:

melting point	SMILES
137 to 138 °C	O=C(Nc1ccc(F)c(CBr)c1)c1ccccn1
> 300 °C	COc1ccc(-c2[nH]nc3c2C(=O)c2c(NC(=O)NNC(=O)c4cc(N)cc(N)c4)cccc2-3)cc1
112 to 114 °C	CC(C)(C)C(=O)Oc1ccc(CCNC(=O)c2cccnc2)cc1OC(=O)C(C)(C)C
184 to 186 °C	Cc1nnc2ccc(-c3cccc(F)c3)nn12
55 to 57 °C	CCOc1cccc2cc(C(=O)c3cc(OC)ccc3OC)oc12
252 °C	CCOc1ccccc1NC=C1C(=O)N(c2ccc(S(=O)(=O)N3CCCCC3)cc2)N=C1C
89.9 to 90.1 °C	CCCCCc1ccc(C(=O)NO)cc1
140 to 143 °C	CC(c1ccc2ncccc2c1)n1nnc2ccc(-c3ccc(C(N)=O)c(Cl)c3)nc21 (stereo unspecified)
195 to 196 °C	O=C1CCC(CCc2ccc(-n3ccnc3)cc2)=NN1
172 to 173 °C	OC(Cn1ccnc1)(c1ccc(Cl)cc1)C1(Oc2ccc(Cl)cc2)CC1 (stereo unspecified)
143 to 144 °C	Cc1ccccc1-c1nc(NCCN(C)C)ncc1N(C)C(=O)C(C)(C)c1cc(C(F)(F)F)cc(C(F)(F)F)c1
193 to 196 °C	CC(Oc1cccnc1)C(=O)Nc1ccc(C(=O)Nc2ccccc2N)cc1 (stereo unspecified)
152 °C	CCOC(=O)c1cc(OCc2ccccc2)c2nc(C)n(C)c2c1
> 260 °C	NC(=O)c1[nH]c2ccccc2c1-c1ccc(NS(=O)(=O)c2cccc(Cl)c2Cl)cc1
245 to 246 °C	Cc1cc(-c2nc3cccnn3c2-c2ccnc(NC(=O)c3ccc(N(C)C)cc3)c2)ccc1F
238 to 239 °C	Cc1cc2c(-c3ccc(Br)cc3)c(CC(=O)O)c(=O)oc2cc1Cl

melting point	SMILES
65 to 70 °C	O=C(O)CCCCCCNC(=O)C1Cc2ccccc2N1S(=O)(=O)c1ccc(-c2cccc(C(F)(F)F)c2)cc1 (stereo unspecified)
175 to 179 °C	Cc1nc(-c2cnc3[nH]cc(C(=O)N[C@@H](C(=O)N4CC(C#N)C4)C4CC4)c3n2)cn1-c1ccccc1
161 to 162 °C	Brc1ccc2c(c1)C(c1ccccc1)OC(c1ccncc1)=N2 (stereo unspecified)
104 to 106 °C	C=CCNC(=O)C1CCc2cc(Oc3ccccc3)ccc2O1 (stereo unspecified)
162 to 163 °C	N=C(Nc1ccc(Cl)cc1)Nc1ncccc1OCc1ccccc1Cl
140 to 142 °C	Cc1c(C)c2c(c(C)c1NC(=O)c1ccc(F)cc1)C(c1ccc(F)cc1)C(C)(C)O2 (stereo unspecified)
140 to 142 °C	COC(=O)CCC(=O)c1ccc(-c2ccc(C(F)(F)F)cc2)cc1
134 °C	Nc1c(SC(F)(F)F)ncn1-c1c(Cl)cc(C(F)(F)F)cc1Cl
167 to 169 °C	NS(=O)(=O)c1cc(C(=O)O)cc(NCc2ccco2)c1-c1ccccc1
253 °C	O=C(O)c1ccc2c(c1)Sc1ccccc1O2
179 to 180 °C	COc1ccccc1NC(=O)Nc1ccc(N2CCN(C(=O)Nc3cc(OCCO)ccc3Cl)CC2)cc1
127 to 128 °C	O=Cc1cccc2sc(-c3ccccc3)nc12
152 to 154 °C	CC(C)(O)COc1c(-c2ccc(S(C)(=O)=O)cc2)cnn(-c2ccc(F)cc2)c1=O
176 °C	O=C(c1cc(-c2cccnc2)c(N2CCOCC2)s1)c1ccc(Cl)cc1Cl
155 to 157 °C	O=C(Nc1ccc(-n2nc(C(F)(F)F)cc2C(F)(F)F)cc1)c1cncc(Br)c1
191 to 194 °C	C[C@@H](c1ccc(-c2ccc(C(=O)NC3CC3)cn2)cc1)N1CC[C@](CC(C)(C)O)(c2ccccc2)OC1=O
